Data on five compounds can be found in patent US11666558B2, “Methods of treating intraocular pressure with activators of Tie-2” (EyePoint Pharmaceuticals, Inc., priority 2015, dated 2023).

Bounds are passed on as bounds.

For one experiment, the target named is HPTP-β (Homo sapiens (Human), UniProt P23467). As to the kind of experiment: HPTP-β inhibitory activity (IC50). It counts as biochemical.
For a further experiment, the system named is intraocular pressure. Description: Intraocular pressure, Compound 1 with sham or ranibizumab, Months 1-3 (FIG. 2, TABLE 1). In kind it is in vivo. As for the experimental part: The difference in IOP was determined relative to a pre-treatment baseline (Base) at months 1, 2, and 3 (M1-M3). Intraocular pressure was determined in the study eye in millimeters of mercury (mmHg). […] The difference in IOP was determined relative to a pre-treatment Baseline at Months 1, 2 and 3. Intraocularpressure was determined in the study eye/fellow eye in mmHg.

Sequence of HPTP-β (P23467 23-1997): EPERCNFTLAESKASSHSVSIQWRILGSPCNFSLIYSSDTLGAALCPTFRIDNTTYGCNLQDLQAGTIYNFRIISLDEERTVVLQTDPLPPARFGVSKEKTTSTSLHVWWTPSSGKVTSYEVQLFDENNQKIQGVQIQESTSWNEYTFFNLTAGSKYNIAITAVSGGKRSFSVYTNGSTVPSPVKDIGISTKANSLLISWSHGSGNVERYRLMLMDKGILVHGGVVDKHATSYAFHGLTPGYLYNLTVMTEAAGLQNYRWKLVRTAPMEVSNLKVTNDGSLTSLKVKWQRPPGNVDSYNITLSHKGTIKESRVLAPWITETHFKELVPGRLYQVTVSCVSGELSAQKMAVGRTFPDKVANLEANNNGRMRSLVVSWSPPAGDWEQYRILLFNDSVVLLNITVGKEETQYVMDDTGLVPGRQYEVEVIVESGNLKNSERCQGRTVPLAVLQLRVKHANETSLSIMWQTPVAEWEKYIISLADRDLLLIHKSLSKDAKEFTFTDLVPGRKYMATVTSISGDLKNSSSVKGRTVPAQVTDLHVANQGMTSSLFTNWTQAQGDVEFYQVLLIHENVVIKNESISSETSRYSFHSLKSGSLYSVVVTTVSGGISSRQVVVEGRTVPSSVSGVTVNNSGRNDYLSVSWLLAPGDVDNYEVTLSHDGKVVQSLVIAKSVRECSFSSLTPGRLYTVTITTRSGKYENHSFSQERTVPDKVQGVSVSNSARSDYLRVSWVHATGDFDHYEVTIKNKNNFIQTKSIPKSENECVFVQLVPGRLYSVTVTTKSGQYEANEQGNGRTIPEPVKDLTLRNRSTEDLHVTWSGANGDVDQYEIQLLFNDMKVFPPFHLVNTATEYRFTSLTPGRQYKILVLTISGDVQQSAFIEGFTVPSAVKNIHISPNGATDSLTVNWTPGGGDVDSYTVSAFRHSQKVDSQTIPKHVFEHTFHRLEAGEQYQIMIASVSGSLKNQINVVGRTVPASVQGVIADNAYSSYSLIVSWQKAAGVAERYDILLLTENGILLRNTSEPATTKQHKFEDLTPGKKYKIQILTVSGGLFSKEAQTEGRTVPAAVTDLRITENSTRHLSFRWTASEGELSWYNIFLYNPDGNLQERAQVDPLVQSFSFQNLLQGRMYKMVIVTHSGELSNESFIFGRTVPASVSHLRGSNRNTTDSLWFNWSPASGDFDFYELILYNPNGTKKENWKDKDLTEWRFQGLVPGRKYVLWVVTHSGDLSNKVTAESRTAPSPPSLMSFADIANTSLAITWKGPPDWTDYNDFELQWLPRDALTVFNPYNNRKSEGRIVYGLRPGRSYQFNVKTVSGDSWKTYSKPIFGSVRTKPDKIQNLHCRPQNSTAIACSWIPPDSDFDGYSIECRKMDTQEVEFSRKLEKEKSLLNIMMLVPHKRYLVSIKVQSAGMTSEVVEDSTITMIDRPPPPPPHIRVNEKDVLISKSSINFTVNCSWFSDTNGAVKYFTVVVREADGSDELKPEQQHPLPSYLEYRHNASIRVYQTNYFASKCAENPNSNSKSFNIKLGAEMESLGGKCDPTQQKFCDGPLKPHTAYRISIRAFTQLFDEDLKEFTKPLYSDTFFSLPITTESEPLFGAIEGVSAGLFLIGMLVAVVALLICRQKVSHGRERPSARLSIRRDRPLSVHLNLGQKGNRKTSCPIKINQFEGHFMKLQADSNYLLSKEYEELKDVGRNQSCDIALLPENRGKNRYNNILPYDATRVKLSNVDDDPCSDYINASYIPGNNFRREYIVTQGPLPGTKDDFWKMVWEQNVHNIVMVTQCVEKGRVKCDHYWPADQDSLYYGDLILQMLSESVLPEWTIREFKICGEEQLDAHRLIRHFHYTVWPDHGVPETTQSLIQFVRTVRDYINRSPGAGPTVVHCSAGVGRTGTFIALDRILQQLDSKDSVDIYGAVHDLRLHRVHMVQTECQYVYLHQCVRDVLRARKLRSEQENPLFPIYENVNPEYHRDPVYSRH

For the compound `CCc1csc([C@H](Cc2ccc(NS(=O)(=O)O)cc2)NC(=O)[C@H](CC(C)C)NC(=O)OC(C)(C)C)n1` [AA42], half-maximal inhibition at HPTP-β (IC50) required 6 nM.

As to ranibizumab [placebo + RBZ], the “IOP, fellow eye” value is reported as 15.8 mmHg with intraocular pressure (Baseline (pre-treatment)), 15.5 mmHg with intraocular pressure (Month 1), 15.5 mmHg in the experiment on intraocular pressure (Month 2) and 15.7 mmHg in the experiment on intraocular pressure (Month 3). Moreover, the “IOP, study eye” value came out at 15.2 mmHg with intraocular pressure (Baseline (pre-treatment)), 15.0 mmHg in the experiment on intraocular pressure (Month 1), 15.0 mmHg in the experiment with intraocular pressure (Month 2) and 15.3 mmHg in the experiment with intraocular pressure (Month 3).

In the case of `CC(C)(C)OC(=O)N[C@@H](Cc1ccc(NS(=O)(=O)O)cc1)c1csc(OC(=O)C(C)(C)C)n1` [AA71], it took 555 nM to reach half-maximal inhibition against HPTP-β (IC50).

Consider `CCc1csc([C@H](Cc2ccc(NS(=O)(=O)O)cc2)NC(=O)[C@H](CNC(=O)OC(C)(C)C)Cc2ccccc2)n1` [AA3], for which half-maximal inhibition against HPTP-β (IC50) required 31 nM. Compared with the last compound, the IC50 is about 18-fold lower.

In the case of `COC(=O)N[C@@H](Cc1ccccc1)C(=O)N[C@@H](Cc1ccc(NS(=O)(=O)O)cc1)c1nc(-c2ccccc2)cs1` [AA21], on HPTP-β, the half-inhibitory concentration (IC50) (commonly the concentration that inhibits the measured activity by half) is less than 0.002 nM.
